{
  "source": "paper PMC12362796",
  "about": "“Bilirubin Targeting WNK1 to Alleviate NLRP3‐Mediated Neuroinflammation” (Advanced Science, 2025)",
  "key": {"hWNK4": {"target": "T1, hWNK4 (Homo sapiens, UniProt Q96J92)", "T1 construct": "expressed in transfected cells; host or cells: HEK293T", "assay": "MST, WNK kinase family member WNK4", "type": "binding", "method": "To validate the direct binding of bilirubin to WNK1, we performed a Microscale Thermophoresis (MST) analysis, which assesses the binding capacity of a compound by measuring the movement of proteins over a microscopic temperature gradient.^[ [26], [27] ^] We overexpressed full‐length WNK1 fused with Green Fluorescent Protein (GFP) in HEK‐293 cells, incubated the lysates with bilirubin at varying dilutions, and subjected them to precise MST measurements in capillaries. […] Furthermore, biliverdin, a structurally similar intermediate product generated before bilirubin formation, was used as a control.\n(§1) All WNK1 clones were derived from the original untagged hWNK1 cDNA (NM_018979), which was modified and subcloned into the pcDNA3.1, referred to as “full‐length WNK1” throughout this study. Truncated constructs, including 1–190aa, 191–491aa, 1–491aa, and 491–2382aa fragments, were generated by PCR using the full‐length template and subsequently ligated into linearized pcDNA3.1 vectors. WNK2 was obtained from Addgene Plasmid #24569, and WNK3 was obtained from Addgene Plasmid #81723. Both were subjected to base modifications and cloned into pcDNA3.1. The WNK4 clone was derived from hWNK4 cDNA (NM_032387.5), modified, and subcloned into the pCMV3‐C‐GFPSpark vector.\nIn HEK293T cells, proteins tagged with green fluorescent protein (GFP) were expressed. […]"}, "phospho-S940 KCC2": {"test_system": "phospho-S940 KCC2", "assay": "Western blotting of phospho-S940 KCC2 in hippocampal tissue", "type": "cell-based, mouse", "description": "Since bilirubin‐induced activation of WNK1 kinase activity increases [Cl⁻]i in neurons, we sought to elucidate the downstream effector proteins of WNK1 that are involved in this process. Neuronal [Cl⁻]i is primarily regulated by the Cl⁻‐K⁺ symporter KCC2, with additional modulation by factors such as the Na⁺‐K⁺‐Cl⁻ co‐transporter NKCC1, GABAA receptors, and glycine receptors (GlyR), all of which contribute to [Cl⁻]i homeostasis.^[ [31] ^] To investigate the mechanism underlying bilirubin‐induced changes in [Cl⁻]i, we selectively targeted these proteins using pharmacological inhibitors (VU0463271 for KCC2, bumetanide for NKCC1, bicuculline for GABAA receptors, and strychnine for GlyR) and activated KCC2 using CLP257.^[ [35], [36] ^] […]\nCells or tissues were lysed by grinding in RIPA buffer (cat. no. PC101; Epizyme Biotech) supplemented with a protease inhibitor cocktail (cat. no. 5872S; Cell Signaling Technology) at 4 °C. […] The total protein concentration was determined using the Pierce BCA Protein Assay Kit (cat. no. 23 225, Thermo Fisher Scientific). […]"}, "[1]": {"assay": "Osmolarity of different bilirubin concentrations", "type": "physicochemical", "details": "low concentrations of bilirubin", "description": "To further investigate the impact of bilirubin on WNK1 kinase activity, we generated hippocampal neuron‐specific Wnk1 knockout mice. Given that conventional Wnk1 knockout mice are embryonically lethal, we employed the CRISPR/Cas9 method to create mice carrying the floxed Wnk1 gene. Then we crossed Thy1‐Cre mice with Wnk1^flox/flox mice to generate hippocampal neuron‐specific Wnk1 knockout mice. We examined the effects of bilirubin on the phosphorylation of WNK1 downstream targets, Ste20‐related proline alanine‐rich kinase (SPAK), and oxidative stress‐responsive kinase 1 (OSR1), in the hippocampus of Wnk1^flox/flox and Wnk1^flox/flox,Thy1‐Cre mice. Upon bilirubin treatment, phosphorylation of OSR1 and SPAK was elevated in the hippocampus of Wnk1^flox/flox mice. […] These findings indicate that the effect of bilirubin on OSR1 and SPAK phosphorylation is WNK1‐dependent (Figure 4B). To rule out the potential effects of osmolarity on the phosphorylation of WNK1, OSR1, and SPAK, we measured the osmolarity of different bilirubin concentrations."}, "WNK1 (1–190)": {"target": "T2, WNK1 (1–190) (Homo sapiens, UniProt Q9H4A3)", "T2 construct": "different lengths of WNK1 truncations (1–491, 1–190, 191–491, 491–2382); expressed in transfected cells; host or cells: HEK293T", "T2 sequence (Q9H4A3 1-190)": "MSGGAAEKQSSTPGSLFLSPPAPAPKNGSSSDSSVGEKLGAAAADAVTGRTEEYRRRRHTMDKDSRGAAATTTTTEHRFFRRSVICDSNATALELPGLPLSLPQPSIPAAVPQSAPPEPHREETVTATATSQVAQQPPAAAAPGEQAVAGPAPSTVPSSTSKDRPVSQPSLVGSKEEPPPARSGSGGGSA", "assay": "MST, EGFP-tagged WNK1 truncation 1–190", "type": "binding", "details": "WNK1 1–190 (non-kinase segment), 15 min, HEK293T lysates", "description": "To further validate these findings, we constructed GFP‐tagged fusion proteins with different lengths of WNK1 truncations (1–491, 1–190, 191–491, 491–2382) based on the WNK1 domains (Figure 3E) and analyzed their binding capacity with bilirubin using MST analysis.^[ [29] ^]\nas §1\nIn HEK293T cells, proteins tagged with green fluorescent protein (GFP) were expressed. The cells were lysed using the M‐PER Mammalian Protein Extraction Reagent (cat. no. 78505, Thermo Scientific) supplemented with protease inhibitors. Lysates were centrifuged at 12000 × g for 15 min at 4 °C, and the supernatant containing proteins was diluted 10‐fold with 1x PBST. […]"}, "primary astrocytes": {"test_system": "primary astrocytes", "assay": "MQAE intracellular chloride measurement in primary astrocytes", "type": "cell-based", "details": "lacking KCC2 expression", "description": "Since bilirubin‐induced activation of WNK1 kinase activity increases [Cl⁻]i in neurons, we sought to elucidate the downstream effector proteins of WNK1 that are involved in this process. Neuronal [Cl⁻]i is primarily regulated by the Cl⁻‐K⁺ symporter KCC2, with additional modulation by factors such as the Na⁺‐K⁺‐Cl⁻ co‐transporter NKCC1, GABAA receptors, and glycine receptors (GlyR), all of which contribute to [Cl⁻]i homeostasis.^[ [31] ^] To investigate the mechanism underlying bilirubin‐induced changes in [Cl⁻]i, we selectively targeted these proteins using pharmacological inhibitors (VU0463271 for KCC2, bumetanide for NKCC1, bicuculline for GABAA receptors, and strychnine for GlyR) and activated KCC2 using CLP257.^[ [35], [36] ^] […] The bilirubin‐induced effect on [Cl⁻]i was not observed in primary astrocytes (Figure S15A,B, Supporting Information) or the HEK 293T cell line (Figure S15C, Supporting Information), both of which lacked KCC2 expression (Figure S16A,B, Supporting Information), further confirming that the effects of bilirubin and WNK1 on [Cl⁻]i elevation are dependent on KCC2.\nIntracellular chloride concentration ([Cl⁻]i) was measured using the MQAE fluorescent dye (Life Technologies) following established protocols (Zhang, Lee et al. 2015). […]"}},
  "note": "pKd: −log10 of the molar value.",
  "data": [
    {"smiles": "C=CC1=C(C)/C(=C/c2[nH]c(Cc3[nH]c(/C=C4\\NC(=O)C(C)=C4C=C)c(C)c3CCC(=O)O)c(CCC(=O)O)c2C)NC1=O", "note": "[bilirubin, Bilirubin]", "values": [
      {"measurement": "pKd", "setting": "hWNK4", "result": 6.55},
      {"measurement": "relative expression of phospho-S940 KCC2", "setting": "phospho-S940 KCC2; Wnk1fl/fl mice hippocampal tissue", "result": "decrease"},
      {"measurement": "relative expression of phospho-S940 KCC2", "setting": "phospho-S940 KCC2; Wnk1fl/fl,Thy1-Cre mice hippocampal tissue", "result": "no such effect"},
      {"measurement": "osmolarity", "setting": "[1]", "result": "didn't change the osmolarity"},
      {"measurement": "pKd", "setting": "WNK1 (1–190)", "result": 5.74},
      {"measurement": "bilirubin-induced effect on [Cl−]i", "setting": "primary astrocytes", "result": "not observed"}
    ]}
  ]
}
